In patent publication US7138361B2, “Herbicidal heterocycles” (E. I. du Pont de Nemours and Company, priority 2000, dated 2006):

Assays:
Type in all cases: in vivo
[1] = test system: Surinam grass (Brachiaria decumbens); test: Test B postemergence
Outline: (§1)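 Ratings on a 0 to 100 visual scale (100 complete control) compare treated plants with controls 13 to 15 days after application. Treatments were pre- or postemergence sprays of compound in non-phytotoxic solvent with surfactant.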

[2] = test system: barnyardgrass (Echinochloa crus-galli); test: Test B postemergence
Outline: as §1

[3] = test system: blackgrass (Alopecurus myosuroides); test: Test B postemergence
Outline: as §1

[4] = test system: cocklebur (Xanthium strumarium); test: Test B postemergence
Outline: as §1

corn (Zea mays) [5] = test: Test B postemergence
Outline: as §1

[6] = test system: crabgrass (Digitaria sanguinalis); test: Test B postemergence
Outline: as §1

[7] = test system: giant foxtail (Setaria faberii); test: Test B postemergence
Outline: as §1

[8] = test system: lambsquarters (Chenopodium album); test: Test B postemergence
Outline: as §1

[9] = test system: morning glory (Ipomoea hederacea); test: Test B postemergence
Outline: as §1

[10] = test system: pigweed (Amaranthus retroflexus); test: Test B postemergence
Outline: as §1

[11] = test system: velvetleaf (Abutilon theophrasti); test: Test B postemergence
Outline: as §1

[12] = test system: wheat (Triticum aestivum); test: Test B postemergence
Outline: as §1

wild oat (Avena fatua) = test: Test B postemergence
Outline: as §1

[13] = test system: Surinam grass (Brachiaria decumbens); test: Test B preemergence
Outline: as §1

[14] = test system: barnyardgrass (Echinochloa crus-galli); test: Test B preemergence
Outline: as §1

[15] = test system: cocklebur (Xanthium strumarium); test: Test B preemergence
Outline: as §1

corn (Zea mays) [16] = test: Test B preemergence
Outline: as §1

[17] = test system: crabgrass (Digitaria sanguinalis); test: Test B preemergence
Outline: as §1

[18] = test system: giant foxtail (Setaria faberii); test: Test B preemergence
Outline: as §1

[19] = test system: lambsquarters (Chenopodium album); test: Test B preemergence
Outline: as §1

[20] = test system: morning glory (Ipomoea hederacea); test: Test B preemergence
Outline: as §1

[21] = test system: pigweed (Amaranthus retroflexus); test: Test B preemergence
Outline: as §1

rice (Oryza saliva) [22] = test: Test B preemergence
Outline: as §1

[23] = test system: velvetleaf (Abutilon theophrasti); test: Test B preemergence
Outline: as §1

rice (Oryza saliva) [24] = test: Test C flooded paddy test; conditions: for Rice plant response rating: Flooded Paddy, scale 0 to 100, 0 no effect, 100 complete control; for Plant response rating, Rice: flooded paddy test, scale 0 to 100 (0 no effect, 100 complete control)
Outline: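 Visual injury score, 0 (no effect) to 100 (complete control), relative to controls. Paddy plants treated at 2-leaf stage; greenhouse hold 12–14 d before rating.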

Nightshade = test: Test C preemergence; conditions: Rate 500 g/ha, visual evaluation after 12 to 14 days
Sunflower = test: Test C preemergence; conditions: scale 0 to 100, 0 no effect, 100 complete control
[25] = Rate 125 g/ha, scale 0 (no effect) to 100 (complete control), 13 to 15 days
[26] = Rate 500 g/ha, scale 0 to 100, 0 is no effect, 100 is complete control, 13 to 15 days
[27] = Preemergence, Rate 500 g/ha, scale 0 to 100, 0 no effect, 100 complete control
[28] = preemergence, Rate 125 g/ha, scale of 0 to 100 where 0 is no effect and 100 is complete control, 13 to 15 days
[29] = Rate 125 g/ha, scale 0 to 100, 0 no effect, 100 complete control

CCCC(C)c1ccn(C2SCN(c3cccc(C(F)(F)F)c3)C2=O)n1 (centres unmarked) [Compound 92]
Plant response rating, Surinam grass [1, 25]: 0 | Plant response rating, Surinam grass [1, 26]: 10 | Plant response rating, Barnyardgrass [2, 25]: 0 | Plant response rating, Barnyardgrass [2, 26]: 70 | Plant response rating, Blackgrass [3, 25]: 0 | Plant response rating, Blackgrass [3, 26]: 0 | Plant response rating, Cocklebur [4, 25]: 20 | Plant response rating, Cocklebur [4, 26]: 80 | Plant response rating, Corn (corn (Zea mays) [5]; [25]): 0 | Plant response rating, Corn (corn (Zea mays) [5]; [26]): 10 | Plant response rating, Crabgrass [6, 25]: 10 | Plant response rating, Crabgrass [6, 26]: 50 | Plant response rating, Foxtail, Giant [7, 25]: 0 | Plant response rating, Foxtail, Giant [7, 26]: 30 | Plant response rating, Lambsquarters [8, 26]: 90 | Plant response rating, Morningglory [9, 26]: 50 | Plant response rating, Pigweed [10, 26]: 60 | Plant response rating, Velvetleaf [11, 26]: 20 | Plant response rating, Wheat [12, 26]: 0 | Plant response rating, Wild Oat (wild oat (Avena fatua); [26]): 0 | Plant response rating, Surinam grass [13, 27]: 70 | Plant response rating, Surinam grass [13, 28]: 0 | Plant response rating, Barnyardgrass [14, 27]: 100 | Plant response rating, Barnyardgrass [14, 28]: 30 | Plant response rating, Cocklebur [15, 27]: 0 | Plant response rating, Cocklebur [15, 28]: 0 | Plant response rating, Corn (corn (Zea mays) [16]; [27]): 0 | Plant response rating, Corn (corn (Zea mays) [16]; [28]): 0 | Plant response rating, Crabgrass [17, 27]: 100 | Plant response rating, Crabgrass [17, 28]: 50 | Plant response rating, Foxtail, Giant [18, 27]: 100 | Plant response rating, Foxtail, Giant [18, 28]: 50 | Plant response rating, Lambsquarters [19, 27]: 100 | Plant response rating, Lambsquarters [19, 28]: 100 | Plant response rating, Morningglory [20, 27]: 0 | Plant response rating, Morningglory [20, 28]: 0 | Plant response rating, Pigweed [21, 27]: 100 | Plant response rating, Pigweed [21, 28]: 80 | Plant response rating, Rice (rice (Oryza saliva) [22]; [27]): 0 | Plant response rating, Rice (rice (Oryza saliva) [22]; [28]): 0 | Plant response rating, Velvetleaf [23, 27]: 0 | Plant response rating, Velvetleaf [23, 28]: 0 | Rice plant response rating (rice (Oryza saliva) [24]; Rate 250 g/ha): 30 | Rice plant response rating (rice (Oryza saliva) [24]; Rate 500 g/ha): 30 | Plant response rating, Rice (rice (Oryza saliva) [24]; Rate 62 g/ha): 0 | Plant response rating, Rice (rice (Oryza saliva) [24]; Rate 125 g/ha): 0 | Plant response rating (0 to 100), Nightshade (Nightshade): 80 | Plant response rating, Sunflower (Sunflower; Rate 250 g/ha): 40

COc1cc(N2CCC(n3ccc(C(C)C)n3)C2=O)ccc1Cl (centres unmarked) [Compound 120]
Plant response rating, Surinam grass [1, 29]: 20 | Plant response rating, Surinam grass [1, 26]: 40 | Plant response rating, Barnyardgrass [2, 29]: 0 | Plant response rating, Barnyardgrass [2, 26]: 60 | Plant response rating, Blackgrass [3, 29]: 0 | Plant response rating, Blackgrass [3, 26]: 0 | Plant response rating, Cocklebur [4, 29]: 90 | Plant response rating, Cocklebur [4, 26]: 100 | Plant response rating, Corn (corn (Zea mays) [5]; [29]): 0 | Plant response rating, Corn (corn (Zea mays) [5]; [26]): 20 | Plant response rating, Crabgrass [6, 29]: 30 | Plant response rating, Foxtail, Giant [7, 29]: 0 | Plant response rating, Lambsquarters [8, 29]: 60 | Plant response rating, Morningglory [9, 29]: 50 | Plant response rating, Pigweed [10, 29]: 60 | Plant response rating, Velvetleaf [11, 29]: 20 | Plant response rating, Wheat [12, 29]: 10 | Plant response rating, Wild Oat (wild oat (Avena fatua); [29]): 30 | Plant response rating, Surinam grass [13, 27]: 100 | Plant response rating, Surinam grass [13, 28]: 40 | Plant response rating, Barnyardgrass [14, 27]: 100 | Plant response rating, Barnyardgrass [14, 28]: 100 | Plant response rating, Cocklebur [15, 27]: 40 | Plant response rating, Cocklebur [15, 28]: 20 | Plant response rating, Corn (corn (Zea mays) [16]; [27]): 50 | Plant response rating, Corn (corn (Zea mays) [16]; [28]): 20 | Plant response rating, Crabgrass [17, 27]: 100 | Plant response rating, Crabgrass [17, 28]: 100 | Plant response rating, Foxtail, Giant [18, 27]: 100 | Plant response rating, Foxtail, Giant [18, 28]: 100 | Plant response rating, Lambsquarters [19, 27]: 100 | Plant response rating, Lambsquarters [19, 28]: 100 | Plant response rating, Morningglory [20, 27]: 100 | Plant response rating, Morningglory [20, 28]: 70 | Plant response rating, Pigweed [21, 27]: 100 | Plant response rating, Pigweed [21, 28]: 100 | Plant response rating, Rice (rice (Oryza saliva) [22]; [27]): 30 | Plant response rating, Rice (rice (Oryza saliva) [22]; [28]): 20 | Plant response rating, Velvetleaf [23, 27]: 40 | Plant response rating, Velvetleaf [23, 28]: 20 | Rice plant response rating (rice (Oryza saliva) [24]; Rate 250 g/ha): 30 | Rice plant response rating (rice (Oryza saliva) [24]; Rate 500 g/ha): 80 | Plant response rating, Rice (rice (Oryza saliva) [24]; Rate 62 g/ha): 0 | Plant response rating, Rice (rice (Oryza saliva) [24]; Rate 125 g/ha): 20 | Plant response rating (0 to 100), Nightshade (Nightshade): 100 | Plant response rating, Sunflower (Sunflower; Rate 250 g/ha): 100

COc1cc(OC)cc(N2CCC(n3ccc(C(C)(C)C)n3)C2=O)c1 (centres unmarked) [Compound 71]
Plant response rating, Surinam grass [1, 25]: 0 | Plant response rating, Surinam grass [1, 26]: 30 | Plant response rating, Barnyardgrass [2, 25]: 0 | Plant response rating, Barnyardgrass [2, 26]: 0 | Plant response rating, Blackgrass [3, 25]: 0 | Plant response rating, Blackgrass [3, 26]: 0 | Plant response rating, Cocklebur [4, 25]: 0 | Plant response rating, Cocklebur [4, 26]: 20 | Plant response rating, Corn (corn (Zea mays) [5]; [25]): 0 | Plant response rating, Corn (corn (Zea mays) [5]; [26]): 0 | Plant response rating, Crabgrass [6, 25]: 0 | Plant response rating, Crabgrass [6, 26]: 30 | Plant response rating, Foxtail, Giant [7, 25]: 0 | Plant response rating, Foxtail, Giant [7, 26]: 20 | Plant response rating, Lambsquarters [8, 25]: 0 | Plant response rating, Lambsquarters [8, 26]: 50 | Plant response rating, Morningglory [9, 25]: 20 | Plant response rating, Morningglory [9, 26]: 20 | Plant response rating, Pigweed [10, 25]: 30 | Plant response rating, Pigweed [10, 26]: 60 | Plant response rating, Velvetleaf [11, 25]: 0 | Plant response rating, Velvetleaf [11, 26]: 20 | Plant response rating, Wheat [12, 25]: 0 | Plant response rating, Wheat [12, 26]: 0 | Plant response rating, Wild Oat (wild oat (Avena fatua); [25]): 0 | Plant response rating, Wild Oat (wild oat (Avena fatua); [26]): 0 | Plant response rating, Surinam grass [13, 27]: 40 | Plant response rating, Surinam grass [13, 28]: 40 | Plant response rating, Barnyardgrass [14, 27]: 90 | Plant response rating, Barnyardgrass [14, 28]: 10 | Plant response rating, Cocklebur [15, 27]: 0 | Plant response rating, Cocklebur [15, 28]: 0 | Plant response rating, Corn (corn (Zea mays) [16]; [27]): 20 | Plant response rating, Corn (corn (Zea mays) [16]; [28]): 0 | Plant response rating, Crabgrass [17, 27]: 100 | Plant response rating, Crabgrass [17, 28]: 50 | Plant response rating, Foxtail, Giant [18, 27]: 100 | Plant response rating, Foxtail, Giant [18, 28]: 90 | Plant response rating, Lambsquarters [19, 27]: 100 | Plant response rating, Lambsquarters [19, 28]: 100 | Plant response rating, Morningglory [20, 27]: 0 | Plant response rating, Morningglory [20, 28]: 0 | Plant response rating, Pigweed [21, 27]: 100 | Plant response rating, Pigweed [21, 28]: 100 | Plant response rating, Rice (rice (Oryza saliva) [22]; [27]): 40 | Plant response rating, Rice (rice (Oryza saliva) [22]; [28]): 20 | Plant response rating, Velvetleaf [23, 27]: 30 | Plant response rating, Velvetleaf [23, 28]: 0 | Rice plant response rating (rice (Oryza saliva) [24]; Rate 250 g/ha): 0 | Rice plant response rating (rice (Oryza saliva) [24]; Rate 500 g/ha): 60 | Plant response rating, Rice (rice (Oryza saliva) [24]; Rate 62 g/ha): 0 | Plant response rating, Rice (rice (Oryza saliva) [24]; Rate 125 g/ha): 0 | Plant response rating (0 to 100), Nightshade (Nightshade): 30 | Plant response rating, Sunflower (Sunflower; Rate 125 g/ha): 0 | Plant response rating, Sunflower (Sunflower; Rate 250 g/ha): 0
